Results taken from article PMC10720709, “Design, synthesis, and evaluation of 4-(3-(3,5-dimethylisoxazol-4-yl)benzyl)phthalazin-1(2H)-one derivatives: potent BRD4 inhibitors with anti-breast cancer activity” (Frontiers in Pharmacology, 2023).
Read-outs that look alike come from different tables or passages of the source.

Key:
[1] = tested on: BD1 domain of BRD4; parameters: method as in Hewings et al., 2013; settings: ref Hewings et al., 2013; read-out: IC50 against the BD1 domain of BRD4; cited from earlier work
[2] = target: T1, recombinant BRD4 (BD1 + BD2) (Homo sapiens, UniProt O60885); assay: BRD4 TR-FRET activity assay; assay type: binding; settings: for inhibition at 1 µM: 1 μmol/L, read-out: BRD4 inhibition rate; for IC50: TR-FRET, BRD4 (BD1 + BD2);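 for all read-outs here: signal rises with BET ligand binding to the bromodomains, so inhibitors lower it, 120 min incubation at room temperature, 1% DMSO, wells lacking ligand as negative control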
T1 construct: employing a recombinant BRD4 (BD1 + BD2) and its corresponding ligand
Description: The BRD4 activity assay utilized TR-FRET technology, employing a recombinant BRD4 (BD1 + BD2) and its corresponding ligand. The TR-FRET signal generated in the assay is proportional to the ligand’s binding to the bromodomains. All reactions contained a final DMSO concentration of 1%. All binding reactions were conducted at room temperature. Each 20 µL reaction mixture, in assay buffer, comprised bromodomains, the BET Ligand, and the specified inhibitor amount. For the negative control, 5 µL of assay buffer replaced the BET ligand. After a 120-min incubation with the ligand, the TR-FRET signal was captured using a Tecan Infinite M1000 plate reader. IC50 values were determined through nonlinear regression with a normalized dose-response fit in Prism GraphPad software.

[3] = target: PARP1 (Homo sapiens, UniProt P09874); assay: PARP1 enzymatic activity ELISA; assay type: biochemical; settings: for inhibition at 0.5 µM: 0.5 μmol/L, read-out: PARP1 inhibition rate
Chain of PARP1 (P09874 whole entry): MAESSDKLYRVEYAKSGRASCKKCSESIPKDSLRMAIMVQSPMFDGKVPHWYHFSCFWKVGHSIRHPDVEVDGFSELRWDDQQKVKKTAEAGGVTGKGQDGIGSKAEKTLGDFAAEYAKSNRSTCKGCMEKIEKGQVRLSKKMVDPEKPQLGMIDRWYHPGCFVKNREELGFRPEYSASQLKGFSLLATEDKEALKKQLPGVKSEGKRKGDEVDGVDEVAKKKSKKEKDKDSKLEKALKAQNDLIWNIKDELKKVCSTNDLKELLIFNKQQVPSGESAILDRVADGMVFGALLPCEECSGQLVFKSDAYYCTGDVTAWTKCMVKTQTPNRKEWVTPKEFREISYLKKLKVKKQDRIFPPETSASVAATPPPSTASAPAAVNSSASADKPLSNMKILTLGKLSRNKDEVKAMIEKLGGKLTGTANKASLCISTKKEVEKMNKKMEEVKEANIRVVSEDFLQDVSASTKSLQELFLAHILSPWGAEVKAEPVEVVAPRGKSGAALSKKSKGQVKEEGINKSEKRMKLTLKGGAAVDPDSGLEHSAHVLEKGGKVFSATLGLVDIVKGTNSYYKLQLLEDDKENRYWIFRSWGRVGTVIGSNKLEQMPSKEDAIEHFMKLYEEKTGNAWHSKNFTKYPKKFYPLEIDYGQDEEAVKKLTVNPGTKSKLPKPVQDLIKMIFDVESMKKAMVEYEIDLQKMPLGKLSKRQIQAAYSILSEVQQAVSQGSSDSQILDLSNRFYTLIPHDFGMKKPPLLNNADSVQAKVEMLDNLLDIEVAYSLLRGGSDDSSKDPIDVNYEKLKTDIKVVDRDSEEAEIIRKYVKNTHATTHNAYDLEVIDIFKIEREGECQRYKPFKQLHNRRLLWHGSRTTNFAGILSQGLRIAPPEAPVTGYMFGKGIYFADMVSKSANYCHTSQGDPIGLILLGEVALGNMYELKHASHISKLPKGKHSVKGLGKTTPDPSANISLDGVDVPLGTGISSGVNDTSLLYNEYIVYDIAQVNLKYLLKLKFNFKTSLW
Description: The inhibition of PARP1 enzymatic activity by the tested compounds was gauged using an ELISA in 96-well plates. Each well was pre-coated with histone (20 μg/mL) in 100 μL of PBS buffer and incubated overnight at 4 °C. […] This was followed by the addition of 5 μL of either the compound at varying concentrations or a solvent control. The reaction was initiated by adding 20 μL of PARP (50 ng/well) and incubating at 30°C for 1 h. Post-reaction, 50 µL of streptavidin-conjugated HRP was introduced, and the assay continued at 30°C for an additional 30 min. Finally, 100 μL of a solution containing H2O2 and luminol in 0.1 M citrate buffer (pH 5.4) was added, and the luminescent signal was recorded using a Molecular Devices SpectraMax M5 microplate reader.

[4] = tested on: MDA-MB-231 cells; assay: MTT cell viability assay, MDA-MB-231; assay type: cell-based; settings: Homo sapiens, read-out: Cytotoxicity IC50
Description: (§1) MDA-MB-468, MDA-MB-231, and MCF-7 cell lines were sourced from the National Collection of Authenticated Cell Culture, China. Cells were maintained in DMEM medium supplemented with 10% FBS and 1% penicillin/streptomycin, and incubated at 37°C in a humidified atmosphere containing 5% CO2.
(§2) The viability of cells was assessed using the MTT assay. Cells were seeded at a density of 3×10^3 cells per well in a 96-well plate and treated with varying concentrations (0.05, 0.2, 0.8, 3.2, 6.4, 12.8 µM) of the compounds for 72 h. Post-incubation, 100 µL of MTT solution (0.5 mg/mL) was added to each well and further incubated for 4 h. The resulting formazan crystals were dissolved in 150 µL DMSO, and the absorbance was measured at 570 nm using a microplate reader.

[5] = tested on: MDA-MB-468 cells; assay: MTT cell viability assay, MDA-MB-468; assay type: cell-based; settings: Homo sapiens, read-out: Cytotoxicity IC50
Description: as §1, §2

[6] = tested on: MCF-7 cells; assay: MTT cell viability assay, MCF-7; assay type: cell-based; settings: Homo sapiens, read-out: Cytotoxicity IC50
Description: as §1, §2

[7] = tested on: MCF-7 cells; assay: Cell cycle analysis (PI, flow cytometry); assay type: cell-based; settings: for proportion of cells in G1 phase: 48 h; for effect on cell cycle (in words): MCF-7, 48 h
Description: The cell cycle distribution was assessed using the DNA Content Quantitation Assay Kit (Solarbio, China). […] After treatment, cells were harvested, fixed in ice-cold 70% ethanol overnight at 4°C, and subsequently washed with PBS. Cells were then treated with 100 μL RNase at 37°C for 30 min and stained with 400 μL PI for 30 min at 4°C in the dark. The cell cycle distribution was analyzed using an Accuri C6 Plus flow cytometer (BD Bioscience, CA), and data interpretation was performed with FlowJo software.

[8] = tested on: c-MYC expression in MCF-7 cells; assay: Western blot of c-MYC; assay type: cell-based; settings: MCF-7, 24 h
Description: (§3) Cells were then lysed using RIPA buffer supplemented with protease and phosphatase inhibitors. Protein concentrations were determined using the BCA Protein Assay Kit. Equal amounts of protein (20–30 µg) were separated by SDS-polyacrylamide gel electrophoresis and subsequently transferred to a polyvinylidene fluoride (PVDF) membrane. The membrane was blocked using 5% milk in PBS prior to incubation with primary antibodies. Primary antibodies against p-H2AX (Cell Signaling Technology™, US), c-MYC, and β-actin (Proteintech, US) were used. After overnight incubation at 4°C, membranes were washed and incubated with HRP-conjugated secondary antibodies for 1 h. Protein bands were visualized using ECL reagents.

[9] = tested on: γ-H2AX in MCF-7 cells; assay: Western blot of γ-H2AX; assay type: cell-based; settings: MCF-7, 24 h
Description: as §3

[10] = tested on: MCF-7 cells; assay: Clonogenic (colony formation) assay; assay type: cell-based; settings: MCF-7, 0.3, 1, 3 μM, 8 days
Description: MCF-7 cells were seeded in 6-well plates at a density of 500 cells/well and allowed to grow for 8 days to facilitate colony formation. After incubation, cells were washed with PBS, fixed in methanol for 15 min, and stained with 1% crystal violet for an hour. Colonies were then imaged and counted.

[11] = tested on: MCF-7 cells; assay: Wound scratch cell migration assay; assay type: cell-based; settings: MCF-7, wound scratch, 1 μM, 48 h
Description: MCF-7 cells were seeded in 6-well plates at a density of 5×10^5 cells/well and incubated overnight. A scratch was made in the cell monolayer using a 10 µL pipette tip. […] Images were captured at 0, 12, 24, and 48-h intervals.

[12] = tested on: MCF-7 cells; assay: Comet assay (DNA damage); assay type: cell-based; settings: MCF-7, 24 h
Description: The comet assay was performed under alkaline conditions using the Comet Assay Kit (Beyotime, China) as per the manufacturer’s instructions. […] This mixture was spread onto microscope slides, which were then submerged in lysis solution for an hour. Electrophoresis was conducted in a horizontal apparatus at 25 V and 300 mA. Post-electrophoresis, slides were stained with PI for DNA visualization, and images were captured using a fluorescence inverted microscope.

| Compound | inhibition at 1 µM [2] [%] | IC50 [2] [µM] | IC50 ([4]; MDA-MB-231, MTT, 72 h) [µM] | IC50 ([5]; MDA-MB-468, MTT, 72 h) [µM] | IC50 ([6]; MCF7, MCF-7, MTT, 72 h) [µM] | also measured |
| --- | --- | --- | --- | --- | --- | --- |
| Cc1noc(C)c1-c1cc(O)cc(C(=O)c2ccccc2)c1 [Compound 7] | – | – | – | – | – | IC50 [1]: 0.544 µM |
| Cc1noc(C)c1-c1cc(Cc2n[nH]c(=O)c3ccccc23)cc(C(=O)N2CC[C@H](O)C2)c1 [DDT14] | 74 | 1.1 ± 0.45 | 8.29 | 14.4 | > 20 | inhibition at 0.5 µM [3]: 53%; melting point: 204 to 205 °C |
| Cc1ccccc1C(=O)Nc1cc(Cc2n[nH]c(=O)c3ccccc23)cc(-c2c(C)noc2C)c1 [DDT23] | 97 | – | 8.83 | 10.6 | 18.7 | – |
| Cc1cccc(C(=O)Nc2cc(Cc3n[nH]c(=O)c4ccccc34)cc(-c3c(C)noc3C)c2)c1 [DDT24] | 91 | 1.88 ± 0.6 | 8.23 | 9.09 | 12.8 | melting point: > 250 °C |
| Cc1ccc(C(=O)Nc2cc(Cc3n[nH]c(=O)c4ccccc34)cc(-c3c(C)noc3C)c2)cc1 [DDT25] | 76 | – | 11.6 | 6.5 | 12.5 | – |
| Cc1noc(C)c1-c1cc(Cc2n[nH]c(=O)c3ccccc23)cc(NC(=O)c2ccccc2C(F)(F)F)c1 [DDT26] | 85 | 0.237 ± 0.093 | 7.55 | 3.96 | 4.9 | IC50 ([3]; ELISA): 4.29 ± 1.81 µM; proportion of cells in G1 phase ([7]; MCF-7, 0.3 μM): 53.8%; proportion of cells in G1 phase ([7]; MCF-7, 1 μM): 59.8%; proportion of cells in G1 phase ([7]; MCF-7, 3 μM): 64.5%; effect on cell cycle (in words) [7]: dose-dependent G1 phase cell cycle arrest; expression of c-MYC (Western blot) [8]: downregulate the expression of c-MYC in MCF-7 cells in a concentration-dependent manner; γ-H2AX level (Western blot) [9]: induced the accumulation of γ-H2AX in MCF-7 cells in a concentration-dependent fashion; colony formation (in words) [10]: inhibited colony formation in MCF-7 cells in a dose-dependent manner; inhibition of cell migration (in words) [11]: slightly less pronounced; DNA damage (comet assay, in words) [12]: induced DNA damage in MCF-7 cells in a dose-dependent manner |
| CC(=O)Nc1cccc(CNc2cc(Cc3n[nH]c(=O)c4ccccc34)cc(-c3c(C)noc3C)c2)c1 [DDT47] | 78 | – | 17.1 | 9.39 | 11.7 | – |
| CC(=O)Nc1ccc(CNc2cc(Cc3n[nH]c(=O)c4ccccc34)cc(-c3c(C)noc3C)c2)cc1 [DDT48] | 96 | 0.46 ± 0.17 | 8.77 | 9.09 | > 20 | – |
| Cc1noc(C)c1-c1cc(Cc2n[nH]c(=O)c3ccccc23)cc(NCc2cccc(N)c2)c1 [DDT49] | 72 | 0.585 ± 0.225 | – | – | – | inhibition at 0.5 µM [3]: 50% |
| Cc1ccc(S(=O)(=O)Nc2cc(Cc3n[nH]c(=O)c4ccccc34)cc(-c3c(C)noc3C)c2)cc1 [DDT59] | 75 | 0.909 ± 0.396 | 7.44 | 11 | > 20 | inhibition at 0.5 µM [3]: 8% |
| Cc1sc2c(c1C)C(c1ccc(Cl)cc1)=N[C@@H](CC(=O)OC(C)(C)C)c1nnc(C)n1-2 [JQ1, reference compound] | – | – | – | – | – | IC50 ([4]; MDA-MB-231, 72 h): 4.83 µM; IC50 ([5]; MDA-MB-468, 72 h): 3.24 µM; IC50 ([6]; MCF7, 72 h): 18.4 µM; inhibition of cell migration (in words) [11]: most potent inhibitory effect |
| O=C(c1cc(Cc2n[nH]c(=O)c3ccccc23)ccc1F)N1CCN(C(=O)C2CC2)CC1 [Olaparib, reference compound] | – | – | 8.17 | 8.09 | 8.7 | effect on cell cycle (in words) [7]: did not influence the MCF-7 cell cycle; inhibition of cell migration (in words) [11]: no inhibitory activity |
